Results: PubChem BioAssay AID2060895 (Molecular Pharmacology Branch, DTP, NCI, 2025)

Test system: PDC 899932-113-R3-J6 complex spheroid viability
Assay: Anticancer human tumor 899932-113-R3-J6-PDC patient-derived melanoma cell line growth inhibition [RAS]
Conditions: for IC50: curve of first compound; for viability, T/C: stronger effect = lower value; active means viability on the fitted dose curve at most 10% of control; inactive means the rest
How it was run: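 Agents were tested in combination matrices in half-log decrements from a top concentration at or near clinical Cmax (10 microM if undetermined). Targets were multi-cell spheroids of tumour lines plus HUVEC and MSC stromal cells.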
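Wherever viability, T/C is given: spheroids exposed to agents for seven days before readout; 100% = DMSO vehicle control wells.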

C=CC(=O)N1CCN(c2nc(OCC3CCCN3C)nc3c(F)c(-c4nc(N)cc(C)c4C(F)(F)F)c(Cl)cc23)C(C)C1 (centres undefined) + CCn1c(-c2cccnc2C(C)OC)c2c3cc(ccc31)N1CCOC(CC(NC(=O)C(C(C)C)N(C)C(=O)C3(F)CCN(C(=O)C#CC(C)(C)N(C)C)CC3)C(=O)N3CCCC(N3)C(=O)OCC(C)(C)C2)C1
inactive: viability, T/C (second compound 0.000949 µM, first compound 0.00316 µM) 113% | viability, T/C (second compound 0.000949 µM, first compound 0.01 µM) 101% | viability, T/C (second compound 0.000949 µM, first compound 0.0316 µM) 118% | viability, T/C (second compound 0.000949 µM, first compound 0.1 µM) 106% | viability, T/C (second compound 0.000949 µM, first compound 0.316 µM) 108% | viability, T/C (second compound 0.000949 µM, first compound 1 µM) 105% | viability, T/C (second compound 0.003 µM, first compound 0.00316 µM) 107% | viability, T/C (second compound 0.003 µM, first compound 0.01 µM) 118% | viability, T/C (second compound 0.003 µM, first compound 0.0316 µM) 105% | viability, T/C (second compound 0.003 µM, first compound 0.1 µM) 108% | viability, T/C (second compound 0.003 µM, first compound 0.316 µM) 108% | viability, T/C (second compound 0.003 µM, first compound 1 µM) 104% | viability, T/C (second compound 0.00949 µM, first compound 0.00316 µM) 110% | viability, T/C (second compound 0.00949 µM, first compound 0.01 µM) 107% | viability, T/C (second compound 0.00949 µM, first compound 0.0316 µM) 102% | viability, T/C (second compound 0.00949 µM, first compound 0.1 µM) 107% | viability, T/C (second compound 0.00949 µM, first compound 0.316 µM) 112% | viability, T/C (second compound 0.00949 µM, first compound 1 µM) 106% | viability, T/C (second compound 0.03 µM, first compound 0.00316 µM) 106% | viability, T/C (second compound 0.03 µM, first compound 0.01 µM) 97% | viability, T/C (second compound 0.03 µM, first compound 0.0316 µM) 110% | viability, T/C (second compound 0.03 µM, first compound 0.1 µM) 110% | viability, T/C (second compound 0.03 µM, first compound 0.316 µM) 114% | viability, T/C (second compound 0.03 µM, first compound 1 µM) 104% | viability, T/C (second compound 0.0949 µM, first compound 0.00316 µM) 101% | viability, T/C (second compound 0.0949 µM, first compound 0.01 µM) 102% | viability, T/C (second compound 0.0949 µM, first compound 0.0316 µM) 96% | viability, T/C (second compound 0.0949 µM, first compound 0.1 µM) 101% | viability, T/C (second compound 0.0949 µM, first compound 0.316 µM) 95.2% | viability, T/C (second compound 0.0949 µM, first compound 1 µM) 92.8% | viability, T/C (second compound 0.3 µM, first compound 0.00316 µM) 91.2% | viability, T/C (second compound 0.3 µM, first compound 0.01 µM) 87% | viability, T/C (second compound 0.3 µM, first compound 0.0316 µM) 92.1% | viability, T/C (second compound 0.3 µM, first compound 0.1 µM) 87.9% | viability, T/C (second compound 0.3 µM, first compound 0.316 µM) 84.9% | viability, T/C (second compound 0.3 µM, first compound 1 µM) 90.9%
> 1000 nM: IC50 (second compound 0.000949 µM) | IC50 (second compound 0.003 µM) | IC50 (second compound 0.00949 µM) | IC50 (second compound 0.03 µM) | IC50 (second compound 0.0949 µM) | IC50 (second compound 0.3 µM)

CC1(C)CCC(Nc2ncc(C(F)(F)F)c(-c3c[nH]c4c(P(C)(C)=O)c(C#N)ccc34)n2)CN1 (centres undefined) + CCn1c(-c2cccnc2C(C)OC)c2c3cc(ccc31)N1CCOC(CC(NC(=O)C(C(C)C)N(C)C(=O)C3(F)CCN(C(=O)C#CC(C)(C)N(C)C)CC3)C(=O)N3CCCC(N3)C(=O)OCC(C)(C)C2)C1
20.1 nM: IC50 (second compound 0.003 µM)
25.9 nM: IC50 (second compound 0.000949 µM)
inactive: viability, T/C (second compound 0.000949 µM, first compound 0.000949 µM) 105% | viability, T/C (second compound 0.000949 µM, first compound 0.003 µM) 75.8% | viability, T/C (second compound 0.000949 µM, first compound 0.00949 µM) 62.9% | viability, T/C (second compound 0.000949 µM, first compound 0.03 µM) 52.4% | viability, T/C (second compound 0.000949 µM, first compound 0.0949 µM) 34% | viability, T/C (second compound 0.000949 µM, first compound 0.3 µM) 15.1% | viability, T/C (second compound 0.003 µM, first compound 0.000949 µM) 112% | viability, T/C (second compound 0.003 µM, first compound 0.003 µM) 78.6% | viability, T/C (second compound 0.003 µM, first compound 0.00949 µM) 61.3% | viability, T/C (second compound 0.003 µM, first compound 0.03 µM) 43.4% | viability, T/C (second compound 0.003 µM, first compound 0.0949 µM) 37.8% | viability, T/C (second compound 0.003 µM, first compound 0.3 µM) 15.5% | viability, T/C (second compound 0.00949 µM, first compound 0.000949 µM) 98.1% | viability, T/C (second compound 0.00949 µM, first compound 0.003 µM) 86.6% | viability, T/C (second compound 0.00949 µM, first compound 0.00949 µM) 61.9% | viability, T/C (second compound 0.00949 µM, first compound 0.03 µM) 41% | viability, T/C (second compound 0.00949 µM, first compound 0.0949 µM) 34.4% | viability, T/C (second compound 0.00949 µM, first compound 0.3 µM) 15% | viability, T/C (second compound 0.03 µM, first compound 0.000949 µM) 104% | viability, T/C (second compound 0.03 µM, first compound 0.003 µM) 88.2% | viability, T/C (second compound 0.03 µM, first compound 0.00949 µM) 64.7% | viability, T/C (second compound 0.03 µM, first compound 0.03 µM) 46.5% | viability, T/C (second compound 0.03 µM, first compound 0.0949 µM) 36.2% | viability, T/C (second compound 0.03 µM, first compound 0.3 µM) 20.2% | viability, T/C (second compound 0.0949 µM, first compound 0.000949 µM) 100% | viability, T/C (second compound 0.0949 µM, first compound 0.003 µM) 75.6% | viability, T/C (second compound 0.0949 µM, first compound 0.00949 µM) 59.8% | viability, T/C (second compound 0.0949 µM, first compound 0.03 µM) 47.4% | viability, T/C (second compound 0.0949 µM, first compound 0.0949 µM) 35.6% | viability, T/C (second compound 0.0949 µM, first compound 0.3 µM) 20.6% | viability, T/C (second compound 0.3 µM, first compound 0.000949 µM) 79.3% | viability, T/C (second compound 0.3 µM, first compound 0.003 µM) 71.8% | viability, T/C (second compound 0.3 µM, first compound 0.00949 µM) 57.1% | viability, T/C (second compound 0.3 µM, first compound 0.03 µM) 43.5% | viability, T/C (second compound 0.3 µM, first compound 0.0949 µM) 37.4% | viability, T/C (second compound 0.3 µM, first compound 0.3 µM) 28.4%
22.5 nM: IC50 (second compound 0.0949 µM)
18.8 nM: IC50 (second compound 0.3 µM)
21.6 nM: IC50 (second compound 0.00949 µM)
26.8 nM: IC50 (second compound 0.03 µM)
